Measured values taken from patent US11242549B2, “Bio-refinery waste utilization for enzyme production using novel penicillium funiculosum MRJ-16 fungal strain” (INDIAN OIL CORPORATION LIMITED, priority 2019, dated 2022).
Read-outs that look alike come from different tables or passages of the source.

Tested on: Penicillium funiculosum MRJ-16 mutant strain
Assay type: cell-based
Conditions: 120 hours of fermentation
Protocol: Fermentation process was carried out using ammonium sulphate (3-5 g/L), KH2PO4 (4-6 g/L), MgSO4.7H2O (0.5-1 g/L), CaCO3 (2.5-5 g/L), Glycerol (2-3 g/L), Corn steep solids (25-35 g/L), cellulose (25-40 g/L) and Tween-80 (1-2 ml/L) dissolved in distilled water. Novel Penicillium funiculosum MRJ-16 mutant strain developed in the laboratory was used for the study. […]
Cultivation of Penicillium funiculosum MRJ-16 mutant strain was conducted under conditions and media composition identical to example no. 1 along with inhibitors at different concentration.

Row | Compound | Average FPA/ml (inhibitor 0.5% in media) [FPA/ml] | Average FPA/ml (inhibitor 0.25% in media) [FPA/ml]
1 | CC(=O)O [Acetic acid, acetic acid] | 6.49 | 
2 | O=Cc1ccco1 [Furfural, furfural] |  | 6.83
3 | O=Cc1ccc(CO)o1 [HMF, hydroxyl methyl furfural] |  | 6.07
